Patent US12435091B2, “RNA-binding protein multimerization inhibitors and methods of use thereof” (THE UAB RESEARCH FOUNDATION, priority 2020, dated 2025)
Converted amounts (≈) assume the structure as drawn.

Assays:
[1] = target: T1, HuR (Homo sapiens, UniProt Q15717); experiment: cell-based split firefly luciferase-HuR dimerization assay; conditions: for IC50: split luciferase HuR dimerization assay, compounds administered for 6 hours, read-out: HuR IC50
T1 construct: expressed in transfected cells; host or cells: U251 glioma cells, doxycycline-inducible constructs
T1 sequence (Q15717 whole entry): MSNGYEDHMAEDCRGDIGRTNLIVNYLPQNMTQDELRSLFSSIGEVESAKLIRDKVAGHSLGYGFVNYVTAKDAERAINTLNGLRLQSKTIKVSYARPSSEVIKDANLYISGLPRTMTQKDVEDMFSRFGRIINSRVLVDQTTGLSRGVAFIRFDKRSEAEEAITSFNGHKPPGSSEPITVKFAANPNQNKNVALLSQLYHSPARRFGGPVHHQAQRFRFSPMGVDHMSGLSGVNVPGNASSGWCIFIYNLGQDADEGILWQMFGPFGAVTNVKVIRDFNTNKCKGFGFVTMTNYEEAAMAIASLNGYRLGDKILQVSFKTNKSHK
Method: (§1) The oncogenic activity of HuR is driven by subcellular localization into the cytoplasm and formation of multimers of HuR. To develop cell based assays to characterize the ability of small molecules to disrupt this process, a split luciferase assay detecting the formation of HuR dimers was developed. The assays were performed in 96 well plates with clear bottom (Corning Inc., Corning, NY). Cells with designed constructs (30,000-50,000 in number) were plated per well; the constructs were induced by doxycycline (0.75 ug/ml) for 48 hours. The evaluated compounds at different concentrations and the corresponding vehicle as the control were administered for 6 hours. The luminescence signals were detected by using InfinitiM200 plate reader (TECAN, Morrisville, NC) in the presence of the luciferase substrate luciferin (D-Luciferin, potassium salt), which was purchased from GoldBio (St Louis, MO). A multichannel pipette (XL 3000I™, Denville Scientific, South Plainfield, NJ) was used in all procedures to ensure the experiment quality.
The assay used the coding sequence of HuR in frame with the N-terminus of firefly luciferase or the C-terminus as depicted in FIG. 2A. When HuR forms dimers in this case, luciferase is generated and with luciferin present, luminescence is generated.
(§2) Squares represent luminescence signal from reporter representing HuR dimers (U251 cells co-expressing HuR-Nluc and HuR-Cluc constructs); circles represent luminescence signal from control reporter (U251 cells expressing Fluc construct). Results are shown as mean+SD.

[2] = target: IRAK1 (Homo sapiens, UniProt P51617); experiment: SelectScreen kinase profiling, Adapta; format: biochemical
Chain of IRAK1 (P51617 whole entry): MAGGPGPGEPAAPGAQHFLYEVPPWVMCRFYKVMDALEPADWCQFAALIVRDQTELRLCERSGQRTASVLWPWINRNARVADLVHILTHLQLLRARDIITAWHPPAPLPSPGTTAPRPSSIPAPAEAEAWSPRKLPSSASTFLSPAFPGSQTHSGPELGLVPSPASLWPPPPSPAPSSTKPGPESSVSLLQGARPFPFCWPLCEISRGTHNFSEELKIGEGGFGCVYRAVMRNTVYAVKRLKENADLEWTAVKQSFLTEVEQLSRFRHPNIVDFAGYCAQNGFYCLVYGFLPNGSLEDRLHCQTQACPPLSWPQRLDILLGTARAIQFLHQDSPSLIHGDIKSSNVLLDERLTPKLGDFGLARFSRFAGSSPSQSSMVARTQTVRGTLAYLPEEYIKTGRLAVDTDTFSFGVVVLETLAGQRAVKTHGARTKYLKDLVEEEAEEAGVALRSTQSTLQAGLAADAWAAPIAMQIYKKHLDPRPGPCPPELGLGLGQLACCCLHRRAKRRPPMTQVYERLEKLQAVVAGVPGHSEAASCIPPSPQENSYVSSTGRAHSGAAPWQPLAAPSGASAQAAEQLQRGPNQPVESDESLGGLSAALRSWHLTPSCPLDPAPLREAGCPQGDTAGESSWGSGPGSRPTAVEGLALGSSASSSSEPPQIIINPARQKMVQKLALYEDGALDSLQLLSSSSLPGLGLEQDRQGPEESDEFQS
Method: (§3) The kinase inhibitory potentials of compounds as described herein (e.g., SRI-42127 and SRI-41664) were evaluated by ThermoFisher Scientific's SelectScreen™ Kinase Profiling Service. The following kinase inhibitory assays were utilized: ZLYTE (Madison, WI) for NTRK1, PIM1, and cMET kinases; LanthaScreen Binding (Madison, WI) for AAK1 kinase; and Adapta (Madison, WI) for IRAK1 kinase.

[3] = Mouse liver microsomal stability in vitro; format: in vitro ADME; conditions: liver microsomes, read-out: MLM t1/2
Method: (§6) Selected compounds were assessed for their aqueous solubility, Log D and mouse and human liver microsomal stability.

[4] = Log D at pH 7.4; format: physicochemical
Method: as §6

[5] = aqueous solubility at pH 7.4; format: physicochemical; conditions: aqueous medium at pH 7.4, pH 7.4, aqueous buffer; read-out: Sol @ pH 7.4
Method: as §6

[6] = target: AAK1 (Homo sapiens, UniProt Q2M2I8); experiment: SelectScreen kinase profiling, LanthaScreen Binding
Chain of AAK1 (Q2M2I8 whole entry): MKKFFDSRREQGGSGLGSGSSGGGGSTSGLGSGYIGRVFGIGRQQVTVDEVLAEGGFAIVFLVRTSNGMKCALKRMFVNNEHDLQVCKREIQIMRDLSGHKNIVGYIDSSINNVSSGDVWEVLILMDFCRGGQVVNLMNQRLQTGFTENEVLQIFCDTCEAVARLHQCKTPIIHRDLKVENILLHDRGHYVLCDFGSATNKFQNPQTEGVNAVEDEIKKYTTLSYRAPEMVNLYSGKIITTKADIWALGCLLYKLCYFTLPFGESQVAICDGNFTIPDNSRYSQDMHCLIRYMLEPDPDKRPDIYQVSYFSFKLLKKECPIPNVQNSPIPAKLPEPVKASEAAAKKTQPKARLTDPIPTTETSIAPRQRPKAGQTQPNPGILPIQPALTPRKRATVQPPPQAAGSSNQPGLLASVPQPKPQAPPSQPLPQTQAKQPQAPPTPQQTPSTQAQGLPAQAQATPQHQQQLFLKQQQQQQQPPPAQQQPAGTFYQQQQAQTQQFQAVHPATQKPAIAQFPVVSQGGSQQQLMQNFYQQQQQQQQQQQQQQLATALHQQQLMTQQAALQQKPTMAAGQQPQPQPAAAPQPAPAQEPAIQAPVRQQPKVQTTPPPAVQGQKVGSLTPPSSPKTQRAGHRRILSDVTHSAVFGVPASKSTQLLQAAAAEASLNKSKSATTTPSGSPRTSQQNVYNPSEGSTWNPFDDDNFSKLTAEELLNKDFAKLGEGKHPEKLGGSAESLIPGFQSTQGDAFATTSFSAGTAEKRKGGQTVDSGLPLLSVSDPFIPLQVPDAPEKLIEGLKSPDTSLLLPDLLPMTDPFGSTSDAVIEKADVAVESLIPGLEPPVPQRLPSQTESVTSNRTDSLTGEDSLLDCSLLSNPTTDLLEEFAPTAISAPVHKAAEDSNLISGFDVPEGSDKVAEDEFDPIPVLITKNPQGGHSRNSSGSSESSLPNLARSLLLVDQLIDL
Method: as §3

[7] = target: PIM1 (Homo sapiens, UniProt P11309); experiment: SelectScreen kinase profiling, ZLYTE; format: biochemical
Chain of PIM1 (P11309 whole entry): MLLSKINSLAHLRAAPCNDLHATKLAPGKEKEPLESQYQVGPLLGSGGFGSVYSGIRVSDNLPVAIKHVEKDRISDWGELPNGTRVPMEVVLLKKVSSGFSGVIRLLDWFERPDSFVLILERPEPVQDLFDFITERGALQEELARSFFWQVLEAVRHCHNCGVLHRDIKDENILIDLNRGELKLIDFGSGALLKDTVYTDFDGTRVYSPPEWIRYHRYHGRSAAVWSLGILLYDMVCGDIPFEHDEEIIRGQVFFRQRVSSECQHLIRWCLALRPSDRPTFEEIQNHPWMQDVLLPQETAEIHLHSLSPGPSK
Method: as §3

[8] = target: TRKA (NTRK1) (Homo sapiens, UniProt P04629); experiment: SelectScreen kinase profiling, ZLYTE; format: biochemical
Chain of TRKA (NTRK1) (P04629 33-796): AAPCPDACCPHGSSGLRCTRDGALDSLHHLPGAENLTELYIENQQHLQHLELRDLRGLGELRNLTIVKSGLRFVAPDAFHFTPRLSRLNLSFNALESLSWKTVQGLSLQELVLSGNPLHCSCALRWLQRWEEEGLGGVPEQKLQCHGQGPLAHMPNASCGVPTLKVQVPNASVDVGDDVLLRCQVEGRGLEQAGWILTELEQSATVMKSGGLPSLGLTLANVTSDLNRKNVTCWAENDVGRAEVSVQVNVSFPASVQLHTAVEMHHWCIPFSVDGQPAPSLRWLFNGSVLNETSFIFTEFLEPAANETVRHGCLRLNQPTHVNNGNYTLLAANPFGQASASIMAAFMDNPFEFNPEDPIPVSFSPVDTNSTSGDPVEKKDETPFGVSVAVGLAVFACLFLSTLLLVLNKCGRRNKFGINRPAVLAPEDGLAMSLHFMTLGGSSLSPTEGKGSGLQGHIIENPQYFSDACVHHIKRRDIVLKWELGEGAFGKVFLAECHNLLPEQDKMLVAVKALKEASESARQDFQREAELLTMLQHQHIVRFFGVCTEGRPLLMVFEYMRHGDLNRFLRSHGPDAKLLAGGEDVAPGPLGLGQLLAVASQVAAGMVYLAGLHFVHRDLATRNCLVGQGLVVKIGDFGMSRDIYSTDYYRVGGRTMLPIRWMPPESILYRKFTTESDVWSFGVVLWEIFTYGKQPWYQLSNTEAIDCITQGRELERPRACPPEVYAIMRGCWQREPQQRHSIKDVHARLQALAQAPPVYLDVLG
Method: as §3

[9] = target: cMET (Homo sapiens, UniProt P08581); experiment: SelectScreen kinase profiling, ZLYTE; format: biochemical
Chain of cMET (P08581 25-1390): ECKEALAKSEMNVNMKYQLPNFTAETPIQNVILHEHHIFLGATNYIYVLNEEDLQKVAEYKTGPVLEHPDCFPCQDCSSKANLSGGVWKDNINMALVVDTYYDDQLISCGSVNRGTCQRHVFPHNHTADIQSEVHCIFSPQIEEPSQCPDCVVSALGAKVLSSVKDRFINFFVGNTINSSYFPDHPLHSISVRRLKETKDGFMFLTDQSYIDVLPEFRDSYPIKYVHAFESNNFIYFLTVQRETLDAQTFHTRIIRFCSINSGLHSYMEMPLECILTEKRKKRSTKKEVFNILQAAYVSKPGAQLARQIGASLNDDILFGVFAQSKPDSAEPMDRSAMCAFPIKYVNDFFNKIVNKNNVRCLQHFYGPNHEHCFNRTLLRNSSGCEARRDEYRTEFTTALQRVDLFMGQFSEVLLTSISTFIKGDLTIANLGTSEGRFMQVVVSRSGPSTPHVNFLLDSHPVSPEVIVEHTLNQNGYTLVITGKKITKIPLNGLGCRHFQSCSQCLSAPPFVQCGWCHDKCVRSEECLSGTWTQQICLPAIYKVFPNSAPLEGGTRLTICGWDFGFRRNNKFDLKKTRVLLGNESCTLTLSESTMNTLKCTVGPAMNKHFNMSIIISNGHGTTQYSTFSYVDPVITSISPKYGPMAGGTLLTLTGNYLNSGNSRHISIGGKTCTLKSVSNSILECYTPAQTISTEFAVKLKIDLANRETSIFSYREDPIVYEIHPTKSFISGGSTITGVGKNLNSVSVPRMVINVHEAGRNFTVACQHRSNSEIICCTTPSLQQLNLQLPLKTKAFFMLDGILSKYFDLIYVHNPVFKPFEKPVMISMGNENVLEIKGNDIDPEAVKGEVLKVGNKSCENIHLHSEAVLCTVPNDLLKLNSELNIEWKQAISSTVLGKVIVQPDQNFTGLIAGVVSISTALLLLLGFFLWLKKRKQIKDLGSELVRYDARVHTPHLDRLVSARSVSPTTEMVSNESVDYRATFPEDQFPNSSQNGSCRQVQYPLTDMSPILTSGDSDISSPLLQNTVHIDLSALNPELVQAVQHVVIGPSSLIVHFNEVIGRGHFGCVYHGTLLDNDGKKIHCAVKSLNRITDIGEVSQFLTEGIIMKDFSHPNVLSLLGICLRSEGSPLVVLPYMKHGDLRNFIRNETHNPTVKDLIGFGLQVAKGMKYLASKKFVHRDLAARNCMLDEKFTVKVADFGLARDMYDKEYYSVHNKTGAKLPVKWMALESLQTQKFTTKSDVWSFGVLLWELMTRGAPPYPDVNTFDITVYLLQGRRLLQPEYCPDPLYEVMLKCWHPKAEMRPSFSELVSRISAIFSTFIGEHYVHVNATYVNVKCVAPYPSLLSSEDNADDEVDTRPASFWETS
Method: as §3

[10] = in vitro; conditions: human, liver microsomes
Method: as §6

[11] = test system: U251 cells expressing Fluc construct; experiment: control Fluc (full length luciferase) reporter assay in U251 cells; format: cell-based; conditions: Homo sapiens, U-251, 6 h; Concn 50 uM; read-out: Fluc Imax % Inh
Method: as §1, with “quality. […]” for “quality.”
as §2

[12] = test system: U251 glioma cell line; experiment: PrestoBlue cell viability assay; format: cell-based; conditions: Homo sapiens, U-251, 48 h, U251, 48 hours of treatment; read-out: IC50 cell viability
Method: (§4) PrestoBlue cell viability reagent (ThermoFisher Scientific; Waltham, MA) was used for cell viability assays. The inhibitory dose-response data were normalized to the control (treatment with vehicle); the inhibitory dose-response curves, which were fitted by using Boltzmann equation, and the corresponding IC50s were generated by using OriginPro software (OriginLab Corporation, CA).
(§5) The glioma suppressive potentials of the new class of HuR multimerization inhibitors were evaluated by utilizing SRI-41664 and SRI-42127 compounds in several cell-based assays. First, it was confirmed that the SRI-41664 and SRI-42127 compounds are cytotoxic for established and PDGx cell lines. FIG. 5A illustrates the inhibitory dose responses of SRI-41664 and SRI-42127 compounds in the established U251, LN229, and the PDGx XD456 glioma cell lines. […] An HuR-overexpression approach was employed to confirm SRI-42127 inhibitory potency against HuR dimerization.

[13] = test system: LN229 glioma cell line; experiment: PrestoBlue cell viability assay; format: cell-based; conditions: Homo sapiens, LN-229; LN229, 48 hours of treatment
Method: as §4, §5

[14] = test system: PDGx XD456 glioma cell line; experiment: PrestoBlue cell viability assay; format: cell-based; conditions: Glioma cell; XD456, 48 hours of treatment
Method: as §4, §5

[15] = test system: U251 and XD456 glioma cell lines; experiment: western blotting of glioma cell fractions (Bcl2, Mcl1, SOX2, cleaved PARP, cleaved caspase 3); format: cell-based; conditions: U251 and XD456, 10 uM for 48 hours
Method: Western blotting was performed. Nuclear and cytoplasmic protein fractionations were performed using NE-PER Nuclear and Cytoplasmic extraction reagents (ThermoFisher Scientific). Anti-lamin A/C and anti-Tubulin alpha antibodies were utilized to verify nuclear and cytoplasmic fractions, respectively. Antibodies against lamin A/C, cleaved PARP, cleaved caspase 3, SOX2, and Mcl1 were purchased from Cell Signaling Technology (Danvers, MA). Anti-Tubulin alpha antibody was purchased from Sigma-Aldrich. Antibodies against HuR, actin, and Bcl2 were purchased from Santa Cruz Biotechnology (Santa Cruz, CA). Polyclonal anti-HuR antibody for HuR/mRNA co-immunoprecipitation was purchased from MBL International (Woburn, MA).
In FIG. 8B, representative western blots confirm reduction of Bcl2 and Mcl1 proteins in cytoplasmic fractions of U251 and XD456 cell lines following treatment with compounds as described herein, 10 uM for 48 hours. SOX2 reduction in nuclear fractions indicates decrease of tumorigenicity of cell lines after treatment with compounds as described herein. Actin and Lamin A/C were utilized for data normalization in cytoplasmic and nuclear fractions, respectively.
In FIG. 8C, representative western blots illustrate appearances of cleaved PARP and cleaved caspase 3 in glioma cell lines after treatment with compounds as described herein, 10 uM for 48 hours. […]

Row | Compound | HuR inhibition activity (in words) [1] | IC50 [1] | IC50 [2] | half-life [3] | logD [4] | solubility [5] | IC50 [6] | IC50 [7] | IC50 [8] | IC50 [9] | half-life [10] | inhibition at 50 µM [11] | IC50 [12] | IC50 [13] | IC50 [14] | Bcl2 and Mcl1 protein levels in cytoplasmic fractions [15] | cleaved caspase 3 and cleaved PARP (apoptosis) [15]
1 | CCCN(c1ccc2ncc(-c3ccc4cn[nH]c4c3)n2n1)C1CCOCC1 [Compound 27] | inactive | > 50 µM | > 30 µM | 9.8 min | 0.4 | 65.3 µM (≈ 24.6 µg/mL) | 13 µM | > 30 µM | > 30 µM | > 30 µM | > 300 min |  |  |  |  |  | 
2 | CCN(c1ccc2ncc(-c3ccc4cn[nH]c4c3)n2n1)C1CCOCC1 [Compound 26] | inactive | > 50 µM | > 30 µM |  |  |  | 15.7 µM | > 30 µM | > 30 µM | > 30 µM |  |  |  |  |  |  | 
3 | c1cc2cn[nH]c2cc1-c1cnc2ccc(NC3CCOCC3)nn12 [Compound 5] |  |  | 0.3 µM |  |  |  | 0.03 µM | 0.829 µM | 0.099 µM | 5.98 µM |  | 38% | 3.4 ± 0.5 µM | 3.8 ± 0.5 µM | 4.8 ± 1.1 µM | dramatic reduction | appearances of cleaved caspase 3 and cleaved PARP
